“And” between values parts separate entries of the source, which are not always exact repeats. Equal entries are not always repeated.
B1: rKBP: Recombinant tissue kallikrein binding protein, reference drug given intravitreally (protein, UniProt P29622 21-427, looked up)
Kallistatin: QLHVEHDGESCSNSSHQQILETGEGSPSLKIAPANADFAFRFYYLIASETPGKNIFFSPLSISAAYAMLSLGACSHSRSQILEGLGFNLTELSESDVHRGFQHLLHTLNLPGHGLETRVGSALFLSHNLKFLAKFLNDTMAVYEAKLFHTNFYDTVGTIQLINDHVKKETRGKIVDLVSELKKDVLMVLVNYIYFKALWEKPFISSRTTPKDFYVDENTTVRVPMMLQDQEHHWYLHDRYLPCSVLRMDYKGDATVFFILPNQGKMREIEEVLTPEMLMRWNNLLRKRNFYKKLELHLPKFSISGSYVLDQILPRLGFTDLFSKWADLSGITKQQKLEASKSFHKATLDVDEAGTEAAAATSFAIKFFSAQTNRHILRFNRPFLVVIFSTSTQSVLFLGKVVDPTKP

Legend:
[1] = test system: streptozotocin-diabetic Brown-Norway rats; experiment: Retinal vascular leakage (Evans Blue dye) after eye drops in streptozotocin-diabetic Brown-Norway rats; type: in vivo, rat
Source text: Administration of streptozotocin to rodents produces a massive destruction of pancreatic β-cells, and thus, triggers marked elevation of glycemia and development of a diabetic state which, in part, mimics early stages of type 1 diabetes. In this regard, streptozotocin-treated rats develop an inflammatory retinopathy featured by rupture of the blood-retinal barrier, increase of inflammatory mediators, cytokines and growth factors (VEGF, basic fibroblast growth factor), microglial cell activation and leukostasis.
Male Brown-Norway or Wistar rats were made diabetic by […] of 65 mg/kg intraperitoneal streptozotocin. Rats with a glycemia<350 mg/dl were discarded from the study. […] On day 15, retinal vascular leakage was determined by measurement of retinal content of Evans Blue dye.
Recombinant tissue kallikrein binding protein (rKBP) was used as a reference drug and was given intravitreally 48 hours before vascular leakage measurement. Values are means ±standard error mean of 12 eyes/group (6 rats). *** means that P<0.001 in a Student's t-test.
The route by which the phosphate salt of compound n° 49 reaches the retina following topical instillation was investigated to determine whether it is mainly by systemic circulation or by the trans- and/or peri-ocular pathway.

[2] = test system: mRNA of cytokines, vasoactive mediators and growth factors in retina; experiment: Expression of mRNA of cytokines, vasoactive mediators and growth factors in retina of diabetic Wistar rats; type: in vivo, rat; details: 1% eye drops for 7 days, phosphate salt
Source text: Expression of mRNA of B1R, B2R, i-NOS, e-NOS, COX-2, ICAM-1, VEGF-R2, VEGF-a, IL-1β and HIF-1α was increased in diabetic rat retina compared to control by 7.5-fold (P<0.05), 5.5, 15- (P<0.01), 6.5- , 8- (P<0.05), 8- , 5- (P<0.05), 12-, 6.5- (P<0.01) and 7-fold (P<0.05), respectively. Expression of TNF-α mRNA remained unchanged.

[3] = test system: leukocyte adhesion to the retinal vasculature; experiment: Leukocyte adhesion to the retinal vasculature of streptozotocin-diabetic Wistar rats; type: in vivo, rat; details: phosphate salt, 1% eye drop twice-a-day for 7 days; P<0.05
[4] = Ocular distribution study in albino and pigmented rabbits (14C-compound, single ocular administration); type: in vivo, rabbit
Source text: Further, an ocular distribution study in albino and pigmented rabbits has been performed.

[5] = test system: mRNA of cytokines, vasoactive mediators and growth factors in retina; experiment: Expression of mRNA of cytokines, vasoactive mediators and growth factors in retina of diabetic Wistar rats; type: in vivo, rat; details: 1% eye drops for 7 days, phosphate salt; remark: listed apart in the source
[6] = test system: STZ diabetic Brown-Norway rats; details: intravitreal route, positive reference drug; cited from earlier work
[7] = single ocular 30 μl of 2% (base equivalent) 14C formulation

Molecule | reduction of retinal edema, maximum ([1]; 1% eye drops, two separate preliminary studies (data not shown)) | reduction of retinal vascular permeability, treated eye ([1]; 3% phosphate salt in a single eye for 7 days) | reduction of retinal oedema, maximum ([1]; phosphate salt, eye drop (10 μl) 0.1-3% twice daily for 7 days, dose-dependent) | activity of phosphate salt form compared to fumarate salt ([1]; test not specified) | mRNA expression of B1R in retina [2] | mRNA expression of B2R in retina [2] | mRNA expression of COX-2 in retina [2] | mRNA expression of HIF-1α in retina [2] | mRNA expression of ICAM-1 in retina [2] | mRNA expression of VEGF-A in retina (first mention in list) [2] | mRNA expression of e-NOS in retina [2] | mRNA expression of i-NOS in retina [2] | reduction of expression of VEGF-A mRNA in retina [2] | leukostasis (number of leukocytes in retinal vessels) [3] | Cmax in plasma ([4]; albino and pigmented rabbits (similar profiles), single ocular 30 μl of 2%) | AUC 0-48 in aqueous, retina, choroids, whole blood and plasma, pigmented rabbit higher than albino [4, 7] | Cmax, pigmented rabbit lower than albino [4, 7] | t½ in vitreous, retina and choroids, pigmented rabbit higher than albino [4, 7] | mRNA expression of IL-1α in retina [5] | reduction of retinal vascular leakage [6]
COc1cc(C)c(S(=O)(=O)N(C)CCOCC(=O)N(C)Cc2ccc(C3=NCCN3)cc2)c(C)c1 [compound n° 49] | 58% and 63% | 37% | 55% | equivalent activity | down-regulated to control level | down-regulated to control level | down-regulated to control level | down-regulated to control level | down-regulated to control level | down-regulated to control level | down-regulated to control level | down-regulated to control level | 50% | significantly blunted | 88 ng/mL | at least 2 fold | at least 2 fold | at least 2 fold | down-regulated to control level | –
B1 | – | – | – | – | – | – | – | – | – | – | – | – | – | – | – | – | – | – | – | approximately 50%

Reference: patent US20130253027A1, “DOSAGES OF ARYLSULFONAMIDE DERIVATIVES” (FOVEA PHARMACEUTICALS, priority 2010, published 2013)
